Tests used:
[1] = tested on: fibroblasts of tumors produced by tumor cell line of human melanoma (MEL HO); experiment: Marker expression (IHC) in fibroblasts of tumor or peritumoral area, mouse model, MEL HO; assay type: in vivo; conditions: MEL HO tumors in mice, 30 mg/kg/day oral, 7 days
Protocol: In vitro tests conducted in Example 5 are now carried out in an experimental model in mice in vivo. […] Subsequently, the expression in fibroblasts tumoral and peritumoral area of molecular markers associated with progression and maintenance of tumors: TGF-α, TGF-β1, TGF-β2, TGF-β3, MMP-7, MMP-11, MMP-14 were analyzed by immunohistochemistry.
Were injected with 2×10^7 cells tumors (corresponding, in each case to each of the tumor types as specified in Table 9) in 200 of PBS subcutaneously μl. […] Mice were randomized into two groups when the tumors reached a volume of 75 mm^3 One group was treated with non-peptide receptor antagonists NK1 and the other with placebo 200μ1. […] Tumors and samples of non-neoplastic stromal areas remote from the tumor were halved, formalin fixed (4%) and then were included in paraffin blocks for analysis by immunohistochemistry.
The expression on fibroblast cells obtained in the animal model was analyzed by immunohistochemistry, of the above markers: TGF-α, TGF-β1, TGF-β2, TGF-β3, MMP-7, MMP-1 1, MMP-14MP-14. Tables 32 to 35 depict the type of label used and the average percentage of fibroblasts present in non-tumor areas, tumor and peritumoral (±SD) which were expressing the marker shown in each of the tumor types developed from of the different cell lines used. This process was realized in mice treated with non-peptide antagonists of NK1 receptor and in untreated animals (control).

[2] = tested on: fibroblasts (PHF) cells co-cultured with human T lymphoma tumor (DERL-7); experiment: Marker expression (IHC) in PHF co-cultured with DERL-7 tumor cells; assay type: cell-based; conditions: PHF co-cultured with DERL-7 + SP + NK1 antagonist
Protocol: (§1) All cultures were maintained 48 hours, following which the same cells were included in paraffin blocks for subsequent analysis of the expression of different markers by immunohistochemistry (see Example 1). The primary antibodies used to perform immunohistochemical assays and their concentration are detailed in Example 2. All experiments were carried out sixfold. Analyzed markers in fibroblast cells (stromal cells) were: TGF-α, TGF-β1, TGF-β2, TGF-β3, SPARC, MMP-3, MMP-7, MMP-9, MMP-11, MMP-13 and MMP-14.

[3] = tested on: fibroblasts (PHF) co-cultured with tumor cells of human Edwing sarcoma (MHH-ES-1); experiment: Marker expression (IHC) in PHF co-cultured with MHH-ES-1 tumor cells; assay type: cell-based; conditions: PHF co-cultured with MHH-ES-1 + SP + NK1 antagonist
Protocol: All cultures were maintained 48 hours, following which the same cells were included in paraffin blocks for subsequent analysis of the expression of different markers by immunohistochemistry (see Example 1). […] All experiments were carried out sixfold. Analyzed markers in fibroblast cells (stromal cells) were: TGF-α, TGF-β1, TGF-β2, TGF-β3, SPARC, MMP-3, MMP-7, MMP-9, MMP-11, MMP-13 and MMP-14.

polymorphonuclear cells = experiment: Marker expression (immunohistochemistry) in polymorphonuclear blood cells with SP alone or with NK1 antagonists; assay type: cell-based, human; conditions: SP 1 μM + antagonist 1 μM; 48 h
Description: Briefly, heparinized blood from healthy donors was centrifuged so as to separate the various components thereof. Red blood cells remained at the bottom of the tube. Above them was a small white layer composed of the white blood cells and above, on top of the tube, the blood plasma. The layer of white cells was distributed in a culture plate of 24 wells by adding in each the same concentration of blood plasma from the same donor, supplemented with 1% antibiotic-antimycotic (Invitrogen). In each well, approximately 1000 cells (PHF) skin from the dermis were further added, obtained as previously described in Example 2. […] After 48 hours of incubation, cells were collected and embedded in paraffin for expression analysis by immunohistochemical techniques (as described in Example 1).
The expression of TGF molecular markers (anti-TGF 2, SAB4502956) and NF-kB (anti-NF-kB, SAB4501992) using specific antibodies against them were analyzed. All antibodies used were rabbit polyclonal antibodies obtained from Sigma Aldrich and were used at a concentration of 1/1000. All experiments were carried out sixfold.

[4] = tested on: fibroblasts (PHF) co-cultured with tumor cells of human pancreatic adenocarcinoma (CAPAN-1); experiment: Marker expression (IHC) in PHF co-cultured with CAPAN-1 tumor cells; assay type: cell-based; conditions: co-culture with CAPAN-1; SP 1 μM + antagonist 1 μM; 48 h;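 note: cultures grown in fresh plasma from a healthy human donor, run in six replicates, value is percent of fibroblasts positive for each marker, compared with fibroblasts cultured alone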
Protocol: as §1

[5] = tested on: leukocyte cells (mono and polymorphonuclear) in co-culture with cells isolated from primary human tumors; experiment: Marker expression (IHC) in leukocytes co-cultured with primary human tumor cells (colon, pancreatic, lung carcinoma, glioma, melanoma); assay type: cell-based; conditions: SP 1 μM + antagonist 1 μM;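 note: tumor cells and leukocytes came from the same patients, co-culture contents were paraffin-embedded for immunohistochemistry with antibodies to TGF-β2 or NF-kB, leukocytes cultured alone served as control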
Protocol: To check that the interaction of the human primary tumor cells with cells of the immune/inflammatory (mono and polymorphonuclear leukocytes) cells, stimulates the secretion of substances of importance for survival and tumor progression, cultures were carried out using sets of immune cells/inflammatory (mono and polymorphonuclear leukocytes) with tumor cells obtained directly from primary human tumors of the same patients.
The same method described in Example 7 and 9 was used to obtain tumor cells from primary human tumors. Similarly cultured immune cells/inflammatory (mono and polymorphonuclear leukocytes) were used as control and secondly, cultured tumor cells isolated from patients in the presence of immune cells/inflammatory (mono and polymorphonuclear leukocytes).
Then, paraffin blocks were prepared with the contents of each of the groups mentioned previously for expression studies using immunohistochemistry. On this occasion, in order to identify the secretion of substances with importance for the survival and progression of tumor the following markers were analyzed: TGF-β2 (SAB4502956) and NF-kB (SAB4501992) using specific antibodies against them. All antibodies used were rabbit polyclonal antibodies obtained from Sigma Aldrich and were used at a concentration of 1/1000. Immunohistochemical techniques were performed and evaluated as described in previous examples.

[6] = tested on: tumors from the tumor cell lines of Table 9; experiment: Mean tumor volume in nude mice injected subcutaneously with human tumor cells; conditions: 30 mg/kg/day oral, 7 days
[7] = co-culture with cells isolated from colon carcinoma
[8] = co-culture with cells isolated from glioma
[9] = co-culture with cells isolated from lung carcinoma
[10] = co-culture with cells isolated from melanoma
[11] = co-culture with cells isolated from pancreatic carcinoma

Cc1cc(F)ccc1[C@H]1CNCCN1C(=O)N(C)[C@H](C)c1cc(C(F)(F)F)cc(C(F)(F)F)c1 [Vestipitant]
fibroblasts expressing MMP-7 [1]: 0%
fibroblasts expressing MMP-11 [1]: 0%
fibroblasts expressing MMP-14 [1]: 0%
fibroblasts expressing TGF-α [1]: 0%
fibroblasts expressing TGF-β 1 [1]: 0%
fibroblasts expressing TGF-β 2 [1]: 0%
fibroblasts expressing TGF-β 3 [1]: 0%
cells expressing MMP-3 [2]: 0%
cells expressing MMP-7 [2]: 0%
cells expressing MMP-9 [2]: 0%
cells expressing MMP-11 [2]: 0%
cells expressing MMP-13 [2]: 0%
cells expressing MMP-14 [2]: 0%
cells expressing SPARC [2]: 0%
cells expressing TGF-α [2]: 0%
cells expressing TGF-β1 [2]: 0%
cells expressing TGF-β2 [2]: 0%
cells expressing TGF-β3 [2]: 0%
cells expressing MMP-3 [3]: 0%
cells expressing MMP-7 [3]: 0%
cells expressing MMP-9 [3]: 0%
cells expressing MMP-11 [3]: 0%
cells expressing MMP-13 [3]: 0%
cells expressing MMP-14 [3]: 0%
cells expressing SPARC [3]: 0%
cells expressing TGF-α [3]: 0%
cells expressing TGF-β1 [3]: 0%
cells expressing TGF-β2 [3]: 0%
cells expressing TGF-β3 [3]: 0%
polymorphonuclear cells expressing NF-kB (polymorphonuclear cells): 0%
polymorphonuclear cells expressing TGF-β (polymorphonuclear cells): 0%
PHF cells expressing MMP-3 [4]: 0%
PHF cells expressing MMP-7 [4]: 0%
PHF cells expressing MMP-9 [4]: 0%
PHF cells expressing MMP-11 [4]: 0%
PHF cells expressing MMP-13 [4]: 0%
PHF cells expressing MMP-14 [4]: 0%
PHF cells expressing SPARC [4]: 0%
PHF cells expressing TGF-α [4]: 0%
PHF cells expressing TGF-β1 [4]: 0%
PHF cells expressing TGF-β2 [4]: 0%
PHF cells expressing TGF-β3 [4]: 0%
Percentage of mononuclear leukocytes cells which expressed NF-kB [5, 7]: 0%
Percentage of mononuclear leukocytes cells which expressed TGF-β [5, 7]: 0%
Percentage of polymorphonuclear leukocytes cells which expressed NF-kB [5, 7]: 0%
Percentage of polymorphonuclear leukocytes cells which expressed TGF-β [5, 7]: 0%
Percentage of mononuclear leukocytes cells expressing NF-kB [5, 8]: 0%
Percentage of mononuclear leukocytes cells expressing TGF-β [5, 8]: 0%
Percentage of polymorphonuclear leukocytes cells expressing NF-kB [5, 8]: 0%
Percentage of polymorphonuclear leukocytes cells expressing TGF-β [5, 8]: 0%
Percentage of mononuclear leukocytes cells which expressed NF-kB [5, 9]: 0%
Percentage of mononuclear leukocytes cells which expressed TGF-β [5, 9]: 0%
Percentage of polymorphonuclear leukocytes cells which expressed NF-kB [5, 9]: 0%
Percentage of polymorphonuclear leukocytes cells which expressed TGF-β [5, 9]: 0%
Percentage of mononuclear leukocytes cells which expressed NF-kB [5, 10]: 0%
Percentage of mononuclear leukocytes cells which expressed TGF-β [5, 10]: 0%
Percentage of polymorphonuclear leukocytes cells which expressed NF-kB [5, 10]: 0%
Percentage of polymorphonuclear leukocytes cells which expressed TGF-β [5, 10]: 0%
Percentage of mononuclear leukocytes cells which expressed NF-kB [5, 11]: 0%
Percentage of mononuclear leukocytes cells which expressed TGF-β [5, 11]: 0%
Percentage of polymorphonuclear leukocytes cells which expressed NF-kB [5, 11]: 0%
Percentage of polymorphonuclear leukocytes cells which expressed TGF-β [5, 11]: 0%
Mean tumor volume ([6]; B lymphoblastic leukemia (peripheral human B lymphoblastoid cells) SD1): 112 ± 8
Mean tumor volume ([6]; Carcinoma of human non-small cell lung COR-L23): 111 ± 3
Mean tumor volume ([6]; Carcinoma of human non-small cell lung H-1963): 101 ± 6
Mean tumor volume ([6]; Carcinoma of human non-small cell lung HCC-44): 100 ± 4
Mean tumor volume ([6]; Carcinoma of human small cell lung H-209): 113 ± 5
Mean tumor volume ([6]; Carcinoma of human urinary bladder 5637): 112 ± 3
Mean tumor volume ([6]; Human B lymphoma BC-1): 101 ± 9
Mean tumor volume ([6]; Human Burkitt lymphoma CA-46): 100 ± 19
Mean tumor volume ([6]; Human Fibrosarcoma HT-1080): 112 ± 4
Mean tumor volume ([6]; Human Hodgkin lymphoma KM-H2): 99 ± 8
Mean tumor volume ([6]; Human Rhabdomyosarcoma A-204): 97 ± 9
Mean tumor volume ([6]; Human T-cell leukemia/NK YT): 101 ± 3
Mean tumor volume ([6]; Human T-lymphoma DERL human Hodgkin 7Linfoma KM-H2): 90 ± 9
Mean tumor volume ([6]; Human breast adenocarcinoma humano MCF-7): 78 ± 7
Mean tumor volume ([6]; Human breast carcinoma MDA-MB-468): 84 ± 7
Mean tumor volume ([6]; Human breast carcinoma MT-3): 78 ± 8
Mean tumor volume ([6]; Human choriocarcinoma AC-1M32): 88 ± 8
Mean tumor volume ([6]; Human colon carcinoma SW-403): 78 ± 2
Mean tumor volume ([6]; Human endometrial carcinoma AN3-CA): 89 ± 1
Mean tumor volume ([6]; Human endometrial stromal sarcoma ESS-1): 99 ± 3
Mean tumor volume ([6]; Human folicular thyroid carcinoma TT2609-C02): 100 ± 4
Mean tumor volume ([6]; Human gastric adenocarcinoma 23132/87): 63 ± 8
Mean tumor volume ([6]; Human glioma GAMG): 101 ± 4
Mean tumor volume ([6]; Human lung carcinoma A-427): 98 ± 10
Mean tumor volume ([6]; Human lung carcinoma DV-90): 136 ± 10
Mean tumor volume ([6]; Human lymphoblastic leukemia T BE-13): 111 ± 4
Mean tumor volume ([6]; Human malignant fibrous histiocytoma U-2197): 95 ± 8
Mean tumor volume ([6]; Human melanoma MEL HO): 102 ± 4
Mean tumor volume ([6]; Human multiple myeloma COLO-677): 101 ± 4
Mean tumor volume ([6]; Human neuroblastoma KELLY): 121 ± 4
Mean tumor volume ([6]; Human neuroblastoma bone marrow SKN-BE 2): 101 ± 7
Mean tumor volume ([6]; Human osteosarcoma CAL-72): 104 ± 9
Mean tumor volume ([6]; Human ovarian adenocarcinoma EFO-27): 63 ± 7
Mean tumor volume ([6]; Human ovarian carcinoma COLO-704): 78 ± 8
Mean tumor volume ([6]; Human pancretic adenocarcinoma CAPAN-1): 85 ± 8
Mean tumor volume ([6]; Human pancretic adenocarcinoma PA-TU 8902): 91 ± 6
Mean tumor volume ([6]; Human papillary thyroid carcinoma metastasizing B-CPAP): 102 ± 2
Mean tumor volume ([6]; Human prostate carcinoma 22RV1): 98 ± 2
Mean tumor volume ([6]; Human retinoblastoma WERI-Rb-1): 112 ± 8
Mean tumor volume ([6]; Human thyroid carcinoma 8505C): 98 ± 9
Mean tumor volume ([6]; Human uterine cervix carcinoma KB): 89 ± 1
Mean tumor volume ([6]; Melanoma humano, metástasis en ganglio linfático COLO 858): 110 ± 4
Mean tumor volume ([6]; Sarcoma human Edwing MHH-ES-1): 115 ± 3
Mean tumor volume ([6]; Transitional Carcinoma of human urinary bladder RT-4): 120 ± 3
